Assay results from ChEMBL document CHEMBL3596165, “Synthesis, structure elucidation and identification of antiproliferative activities of a novel class of thiophene bioisosteres bearing the privileged 7,8-dihydroimidazo[2,1-c][1,2,4]triazin-4(6H)-one scaffold” (Bioorg Med Chem, 2015).

How the values were obtained:
Vero [1] = assay: Antiproliferative activity against African green monkey Vero cells after 72 hrs by BrdUrd incorporation assay; format: cell-based; details: Chlorocebus sabaeus
[2] = Antiproliferative activity against African green monkey Vero cells at 50 ug/ml after 72 hrs by BrdUrd incorporation assay; format: cell-based; details: chlorocebus sabaeus, read-out: GI
TOV112D [3] = assay: Antiproliferative activity against human TOV112D cells at 50 ug/ml after 24 hrs by BrdUrd incorporation assay; format: functional; details: read-out: GI
A549 [4] = assay: Antiproliferative activity against human A549 cells after 72 hrs by BrdUrd incorporation assay; format: functional, cell-based; details: A549, 72 h
HeLa [5] = assay: Antiproliferative activity against human HeLa cells at 50 ug/ml after 48 hrs by BrdUrd incorporation assay; format: functional; details: read-out: GI
A549 [6] = assay: Antiproliferative activity against human A549 cells at 50 ug/ml after 24 hrs by BrdUrd incorporation assay; format: functional; details: A549, 24 h, read-out: GI
TOV112D [7] = assay: Antiproliferative activity against human TOV112D cells after 48 hrs by BrdUrd incorporation assay; format: functional, cell-based
TOV112D [8] = assay: Antiproliferative activity against human TOV112D cells at 50 ug/ml after 72 hrs by BrdUrd incorporation assay; format: functional; details: read-out: GI
A549 [9] = assay: Antiproliferative activity against human A549 cells after 24 hrs by BrdUrd incorporation assay; format: functional, cell-based; details: A549, 24 h
TOV112D [10] = assay: Antiproliferative activity against human TOV112D cells after 72 hrs by BrdUrd incorporation assay; format: functional, cell-based
HeLa [11] = assay: Antiproliferative activity against human HeLa cells after 72 hrs by BrdUrd incorporation assay; format: functional, cell-based
A549 [12] = assay: Antiproliferative activity against human A549 cells after 48 hrs by BrdUrd incorporation assay; format: functional, cell-based; details: A549, 48 h
T47D [13] = assay: Antiproliferative activity against human T47D cells at 50 ug/ml after 48 hrs by BrdUrd incorporation assay; format: functional; details: read-out: GI
T47D [14] = assay: Antiproliferative activity against human T47D cells after 24 hrs by BrdUrd incorporation assay; format: functional, cell-based
HeLa [15] = assay: Antiproliferative activity against human HeLa cells after 48 hrs by BrdUrd incorporation assay; format: functional, cell-based
A549 [16] = assay: Antiproliferative activity against human A549 cells at 50 ug/ml after 48 hrs by BrdUrd incorporation assay; format: functional; details: A549, 48 h, read-out: GI
Vero [17] = assay: Antiproliferative activity against African green monkey Vero cells after 24 hrs by BrdUrd incorporation assay; format: cell-based; details: chlorocebus sabaeus
A549 [18] = assay: Antiproliferative activity against human A549 cells at 50 ug/ml after 72 hrs by BrdUrd incorporation assay; format: functional; details: A549, 72 h, read-out: GI
HeLa [19] = assay: Antiproliferative activity against human HeLa cells at 50 ug/ml after 72 hrs by BrdUrd incorporation assay; format: functional; details: read-out: GI
TOV112D [20] = assay: Antiproliferative activity against human TOV112D cells after 24 hrs by BrdUrd incorporation assay; format: functional, cell-based
T47D [21] = assay: Antiproliferative activity against human T47D cells at 50 ug/ml after 72 hrs by BrdUrd incorporation assay; format: functional; details: read-out: GI
T47D [22] = assay: Antiproliferative activity against human T47D cells after 72 hrs by BrdUrd incorporation assay; format: functional, cell-based
[23] = Antiproliferative activity against African green monkey Vero cells at 50 ug/ml after 48 hrs by BrdUrd incorporation assay; format: cell-based; details: chlorocebus sabaeus, read-out: GI
T47D [24] = assay: Antiproliferative activity against human T47D cells at 50 ug/ml after 24 hrs by BrdUrd incorporation assay; format: functional; details: read-out: GI
HeLa [25] = assay: Antiproliferative activity against human HeLa cells at 50 ug/ml after 24 hrs by BrdUrd incorporation assay; format: functional; details: read-out: GI
T47D [26] = assay: Antiproliferative activity against human T47D cells after 48 hrs by BrdUrd incorporation assay; format: functional, cell-based
Vero [27] = assay: Antiproliferative activity against African green monkey Vero cells at 50 ug/ml after 24 hrs by BrdUrd incorporation assay; format: cell-based; details: chlorocebus sabaeus
Vero [28] = assay: Antiproliferative activity against African green monkey Vero cells after 48 hrs by BrdUrd incorporation assay; format: cell-based; details: Chlorocebus sabaeus
TOV112D [29] = assay: Antiproliferative activity against human TOV112D cells at 50 ug/ml after 48 hrs by BrdUrd incorporation assay; format: functional; details: read-out: GI
HeLa [30] = assay: Antiproliferative activity against human HeLa cells after 24 hrs by BrdUrd incorporation assay; format: functional, cell-based

SMILES | IC50 (Vero [1]) [µM] | inhibition at 72 h, 50 ug/ml [2] [%] | inhibition of growth at 50 µg/mL (TOV112D [3]) [%] | IC50 (A549 [4]) [µM] | inhibition of growth at 50 µg/mL (HeLa [5]) [%] | inhibition of growth at 50 µg/mL (A549 [6]) [%] | IC50 (TOV112D [7]) [µM] | inhibition of growth at 50 µg/mL (TOV112D [8]) [%] | IC50 (A549 [9]) [µM] | IC50 (TOV112D [10]) [µM] | IC50 (HeLa [11]) [µM] | IC50 (A549 [12]) [µM] | inhibition of growth at 50 µg/mL (T47D [13]) [%] | IC50 (T47D [14]) [µM] | IC50 (HeLa [15]) [µM] | inhibition of growth at 50 µg/mL (A549 [16]) [%] | inhibition of growth at 50 µg/mL (HeLa [19]) [%] | inhibition of growth at 50 µg/mL (T47D [21]) [%] | inhibition of growth at 50 µg/mL (T47D [24]) [%] | inhibition of growth at 50 µg/mL (HeLa [25]) [%] | further results
COc1ccccc1N1CCn2c1nnc(-c1cccs1)c2=O | 90 | 90 | 75 | 80 | 60 | 70 | 100 | 90 | 110 | 80 | 100 | 100 | 90 | 100 | 130 | 80 | 80 | 95 | 80 | 50 | IC50 (Vero [17]): 150 µM; inhibition of growth at 50 µg/mL (A549 [18]): 90%; IC50 (TOV112D [20]): 100 µM; IC50 (T47D [22]): 80 µM; inhibition at 48 h, 50 ug/ml [23]: 75%; IC50 (T47D [26]): 90 µM; growth inhibition (GI) (Vero [27]): 50%; IC50 (Vero [28]): 100 µM; inhibition of growth at 50 µg/mL (TOV112D [29]): 80%; IC50 (HeLa [30]): 150 µM
Cc1ccccc1N1CCn2c1nnc(-c1ccco1)c2=O |  |  |  |  | 25 |  |  |  |  |  |  |  | 50 |  |  |  | 50 | 75 | 25 | 25 | 
Cc1ccc(N2CCn3c2nnc(-c2cccs2)c3=O)cc1 | 80 | 100 | 90 | 80 | 100 | 90 | 80 | 100 | 90 | 80 | 80 | 90 | 100 | 90 | 80 | 95 | 100 | 100 | 95 | 80 | IC50 (Vero [17]): 90 µM; inhibition of growth at 50 µg/mL (A549 [18]): 100%; IC50 (TOV112D [20]): 90 µM; IC50 (T47D [22]): 80 µM; inhibition at 48 h, 50 ug/ml [23]: 95%; IC50 (T47D [26]): 80 µM; growth inhibition (GI) (Vero [27]): 90%; IC50 (Vero [28]): 80 µM; inhibition of growth at 50 µg/mL (TOV112D [29]): 100%; IC50 (HeLa [30]): 100 µM
